Assay [1] addresses T1, SARS-CoV-2 PLpro (nsp3 1564–1878) (Severe acute respiratory syndrome coronavirus 2, UniProt P0DTD1). Kind of assay: biochemical. Also noted: FRET-quenched peptide (Pro3) cleavage by PLpro, 10 min pre-incubation, slope over 20 min, normalised to no-compound control. The settings on record: low concentration screen, read-out: % of control remaining.
The target of assay [2] is T1, SARS-CoV-2 PLpro (nsp3 1564–1878). Put plainly: biochemical. Details: FRET-quenched peptide (Pro3) cleavage by PLpro, 10 min pre-incubation, slope over 20 min, normalised to no-compound control. The settings on record: high concentration screen, read-out: % of control remaining.

Counter-ions that a name gives are not always drawn. Like-named read-outs stand apart in the source and are kept apart here.

Consider `N[C@@H](Cc1cnc[nH]1)C(=O)N[C@@H](Cc1cnc[nH]1)C(=O)N[C@@H](Cc1cnc[nH]1)C(=O)N[C@@H](Cc1cnc[nH]1)C(=O)N[C@@H](Cc1cnc[nH]1)C(=O)N[C@@H](Cc1cnc[nH]1)C(=O)O` [Hexa-His], for which, in assay [1] (Well no.=8312), the remaining activity at 1.25 µM amounted to 94.5%. In addition, the remaining activity at 3.75 µM in assay [2] (Well no.=8312) is 96.4%.

Consider `O=C(O)CCCCCCCCCCCCCCC(=O)O` [Hexadecanedioic acid], for which the remaining activity at 1.25 µM in assay [1] (Well no.=6685) came to 104%. Also, the remaining activity at 3.75 µM in assay [2] (Well no.=6685) turned out to be 106%.

Consider `CCCCCCCCCCCCCCCC(=O)O` [Hexadecanoic acid], for which, in assay [1] (Well no.=4302), the remaining activity at 1.25 µM was 101%. Besides, in assay [2] (Well no.=4302), the remaining activity at 3.75 µM came out at 97.2%.

Regarding `C[N+](C)(C)CCCCCC[N+](C)(C)C` [Hexamethonium bromide], the remaining activity at 1.25 µM in assay [1] (Well no.=702) was found to be 98.3%. Moreover, the remaining activity at 3.75 µM in assay [2] (Well no.=702) is 100%.

For the compound `C[N+](C)(C)CCCCCC[N+](C)(C)C` [Hexamethonium dichloride], the remaining activity at 1.25 µM in assay [1] (Well no.=656) worked out at 90.7%. Also, the remaining activity at 3.75 µM in assay [2] (Well no.=656) amounted to 89.9%.

On to `CC[C@H](c1ccc(O)cc1)[C@@H](CC)c1ccc(O)cc1` [Hexestrol], for which, in assay [1] (Well no.=2182), the remaining activity at 1.25 µM worked out at 99.9%. In addition, the remaining activity at 3.75 µM in assay [2] (Well no.=2182) is 100%.

With `C[C@@H]1OC(=O)[C@H]2C[C@H]3CCCC[C@@H]3[C@@H](/C=C/[C@H]3CCC[C@H](C)N3C)[C@@H]12` [Himbacine], the remaining activity at 1.25 µM in assay [1] (Well no.=3329) was 99%. Besides, the remaining activity at 3.75 µM in assay [2] (Well no.=3329) worked out at 98.7%.

In the case of `CC(C)c1cccc(=O)c(O)c1` [Hinokitiol], the remaining activity at 1.25 µM in assay [1] (Well no.=3893) turned out to be 105%. Further, in assay [2] (Well no.=3893), the remaining activity at 3.75 µM worked out at 103%.

On to `O=C(O)CNC(=O)c1ccccc1` [Hippuric acid], for which the remaining activity at 1.25 µM in assay [1] (Well no.=7309) is 109%. Moreover, the remaining activity at 3.75 µM in assay [2] (Well no.=7309) turned out to be 106%.

For the compound `O=c1cc(O)cc(/C=C/c2ccc(O)c(O)c2)o1` [Hispidin], the remaining activity at 1.25 µM in assay [1] (Well no.=754) turned out to be 98.7%. Moreover, the remaining activity at 3.75 µM in assay [2] (Well no.=754) came out at 96.8%.

Turning to `O=C1/C(=C/c2ccc(O)cc2)Oc2cc(O)ccc21` [Hispidol], in assay [1] (Well no.=6966), the remaining activity at 1.25 µM is 95.6%. Besides, the remaining activity at 3.75 µM in assay [2] (Well no.=6966) amounted to 93%.

Take `NCCc1c[nH]cn1` [Histamine (phosphate)]: in assay [1] (Well no.=6717), the remaining activity at 1.25 µM came out at 95.8%. In assay [2] (Well no.=6717), the remaining activity at 3.75 µM was 91.6%.

For `NCCc1c[nH]cn1` [Histamine dihydrochloride], in assay [1] (Well no.=564), the remaining activity at 1.25 µM is 103%. The remaining activity at 3.75 µM in assay [2] (Well no.=564) stood at 101%.

In the case of `NCCc1c[nH]cn1` [Histamine], the results for the remaining activity at 1.25 µM in assay [1] (Well no.=6665) and in assay [1] (Well no.=7059) were 105% and 102%, respectively. Also, the remaining activity at 3.75 µM is 103% in assay [2] (Well no.=6665) and 109% in assay [2] (Well no.=7059).

For `C[N+]1(C)[C@@H]2CC[C@H]1C[C@@H](OC(=O)C(O)c1ccccc1)C2` (stereo partly shown) [Homatropine (methylbromide)], the remaining activity at 1.25 µM in assay [1] (Well no.=7379) was 94.7%. The remaining activity at 3.75 µM in assay [2] (Well no.=7379) came to 96%.

On to `C[N+]1(C)[C@@H]2CC[C@H]1C[C@@H](OC(=O)C(O)c1ccccc1)C2` (stereo partly shown) [Homatropine Methylbromide], for which the remaining activity at 1.25 µM in assay [1] (Well no.=5080) was determined as 98.2%. Also, in assay [2] (Well no.=5080), the remaining activity at 3.75 µM worked out at 101%.

With `COc1cc(/C=C/C(=O)c2ccc(O)cc2O)ccc1O` [Homobutein], in assay [1] (Well no.=3637), the remaining activity at 1.25 µM is 99.6%. Moreover, the remaining activity at 3.75 µM in assay [2] (Well no.=3637) was 102%.

Turning to `COc1cc([C@@H]2CC(=O)c3c(O)cc(O)cc3O2)ccc1O` [Homoeriodictyol], the remaining activity at 1.25 µM in assay [1] (Well no.=3683) came out at 98.7%. Besides, in assay [2] (Well no.=3683), the remaining activity at 3.75 µM was found to be 98.2%.

With `O=c1cc(-c2ccc(O)c(O)c2)oc2cc(O)c([C@@H]3O[C@H](CO)[C@@H](O)[C@H](O)[C@H]3O)c(O)c12` [Homoorientin], the remaining activity at 1.25 µM in assay [1] (Well no.=3291) stood at 95.6%. In addition, in assay [2] (Well no.=3291), the remaining activity at 3.75 µM came to 100%.

In the case of `COc1c(O[C@@H]2O[C@H](CO)[C@@H](O)[C@H](O)[C@H]2O)cc2oc(-c3ccc(O)cc3)cc(=O)c2c1O` [Homoplantaginin], the remaining activity at 1.25 µM in assay [1] (Well no.=6446) amounted to 94.1%. In assay [2] (Well no.=6446), the remaining activity at 3.75 µM worked out at 95.8%.

`COc1cc(CC(=O)O)ccc1O` [Homovanillic acid]: in assay [1] (Well no.=6831), the remaining activity at 1.25 µM turned out to be 96.9%. For the same compound, the remaining activity at 3.75 µM in assay [2] (Well no.=6831) was found to be 97%.

For `C=CCc1ccc(O)c(-c2ccc(O)c(CC=C)c2)c1` [Honokiol], the remaining activity at 1.25 µM in assay [1] (Well no.=3621) is 97.6%. In assay [2] (Well no.=3621), the remaining activity at 3.75 µM came out at 93.8%.

Regarding `CN(C)CCc1ccc(O)cc1` [Hordenine sulfate], the remaining activity at 1.25 µM in assay [1] (Well no.=3106) came out at 97.9%. In assay [2] (Well no.=3106), the remaining activity at 3.75 µM is 100%.

Regarding `NNc1nncc2ccccc12` [Hydralazine hydrochloride], the remaining activity at 1.25 µM in assay [1] (Well no.=560) was 95.6%. The remaining activity at 3.75 µM in assay [2] (Well no.=560) was 95.5%.

On to `NS(=O)(=O)c1cc2c(cc1Cl)NCNS2(=O)=O` [Hydrochlorothiazide], for which the remaining activity at 1.25 µM in assay [1] (Well no.=658) worked out at 100%. Moreover, in assay [2] (Well no.=658), the remaining activity at 3.75 µM was found to be 98.6%.

As to `O=C(O)CCc1ccccc1` [Hydrocinnamic acid], the remaining activity at 1.25 µM in assay [1] (Well no.=6731) worked out at 98.5%. Further, in assay [2] (Well no.=6731), the remaining activity at 3.75 µM is 96.7%.

`CC(=O)OCC(=O)[C@@]1(O)CC[C@H]2[C@@H]3CCC4=CC(=O)CC[C@]4(C)[C@H]3[C@@H](O)C[C@@]21C` [Hydrocortisone 21-acetate]: the remaining activity at 1.25 µM in assay [1] (Well no.=2214) stood at 100%. Moreover, the remaining activity at 3.75 µM in assay [2] (Well no.=2214) turned out to be 101%.

With `C[C@]12CCC(=O)C=C1CC[C@@H]1[C@@H]2[C@@H](O)C[C@@]2(C)[C@H]1CC[C@]2(O)C(=O)COC(=O)CCC(=O)O` [Hydrocortisone 21-hemisuccinate sodium salt], in assay [1] (Well no.=5653), the remaining activity at 1.25 µM was 99%. For the same compound, the remaining activity at 3.75 µM in assay [2] (Well no.=5653) came to 102%.

Take `C[C@]12CCC(=O)C=C1CC[C@@H]1[C@@H]2[C@@H](O)C[C@@]2(C)[C@H]1CC[C@]2(O)C(=O)COC(=O)CCC(=O)O` [Hydrocortisone 21-hemisuccinate sodium]: the remaining activity at 1.25 µM in assay [1] (Well no.=704) was 92.7%. In assay [2] (Well no.=704), the remaining activity at 3.75 µM came out at 93.3%.

Take `CC(=O)OCC(=O)[C@@]1(O)CC[C@H]2[C@@H]3CCC4=CC(=O)CC[C@]4(C)[C@H]3[C@@H](O)C[C@@]21C` [Hydrocortisone (acetate)]: in assay [1] (Well no.=7342), the remaining activity at 1.25 µM is 105%. Also, in assay [2] (Well no.=7342), the remaining activity at 3.75 µM turned out to be 109%.

Take `CCCC(=O)O[C@]1(C(=O)CO)CC[C@H]2[C@@H]3CCC4=CC(=O)CC[C@]4(C)[C@H]3[C@@H](O)C[C@@]21C` [Hydrocortisone butyrate]: the remaining activity at 1.25 µM in assay [1] (Well no.=5418) was 94.8%. The remaining activity at 3.75 µM in assay [2] (Well no.=5418) stood at 98.8%.

These data come from PMC8286840, “Identifying SARS-CoV-2 antiviral compounds by screening for small molecule inhibitors of Nsp3 papain-like protease” (Biochemical Journal, 2021).
